# Values of other authors as cited in PubChem BioAssay AID1259409 (Chemical Carcinogenesis Research Information System (CCRIS), 2018).
# Test system: rodent chemically induced tumor inhibition, incidence and multiplicity
# Experiment: CCRIS tumor inhibitor studies
# Conditions: Dose [Inhibitor]: 0, Route [Inhibitor]: ORAL
smiles,measurement,setting,value
Oc1cccc(O)c1,"tumour outcome (control, treated, inhibition, significance)","Carcinogen: N-BIS(2-HYDROXYPROPYL)NITROSAMINE, 53609-64-6, 0.8% IN DIET FOR 30 WK BEGINNING POST CARCINOGEN TREATMENT (STUDY DURATION: 32 WK), Species: RAT, Strain/Sex: F344/MALE, Target Tissue: Type of Lesion: LUNG: ADENOMA, Dose [Carcinogen]: 0.1% IN DRINKING WATER FOR 2 WK, Promoter: NONE USED","100%, 90%, 10%, not calculated"
same,"tumour outcome (control, treated, inhibition, significance)","Carcinogen: N-BIS(2-HYDROXYPROPYL)NITROSAMINE, 53609-64-6, 0.8% IN DIET FOR 30 WK BEGINNING POST CARCINOGEN TREATMENT (STUDY DURATION: 32 WK), Species: RAT, Strain/Sex: F344/MALE, Target Tissue: Type of Lesion: THYROID: ADENOMA, Dose [Carcinogen]: 0.1% IN DRINKING WATER FOR 2 WK, Promoter: NONE USED","20%, 30%, -50%, not calculated"
same,"tumour outcome (control, treated, inhibition, significance)","Carcinogen: N-BIS(2-HYDROXYPROPYL)NITROSAMINE, 53609-64-6, 0.8% IN DIET FOR 30 WK BEGINNING POST CARCINOGEN TREATMENT (STUDY DURATION: 32 WK), Species: RAT, Strain/Sex: F344/MALE, Target Tissue: Type of Lesion: THYROID: CARCINOMA, Dose [Carcinogen]: 0.1% IN DRINKING WATER FOR 2 WK, Promoter: NONE USED","20%, 25%, -25%, not calculated"
same,"tumour outcome (control, treated, inhibition, significance)","Carcinogen: N-ETHYL-N-HYDROXYETHYLNITROSAMINE, 13147-25-6, 0.8% IN DIET FOR 36 WK BEGINNING 1 WK POST CARCINOGEN TREATMENT (STUDY DURATION: 40 WK), Species: RAT, Strain/Sex: WISTAR/MALE, Target Tissue: Type of Lesion: KIDNEY: MICROADENOMA, Dose [Carcinogen]: 0.1% IN DRINKING WATER FOR 3 WK, Promoter: NONE USED","11/17 (65%), 12/16 (75%), -15%, not significant"
same,"tumour outcome (control, treated, inhibition, significance)","Carcinogen: N-ETHYL-N-HYDROXYETHYLNITROSAMINE, 13147-25-6, 0.8% IN DIET FOR 36 WK BEGINNING 1 WK POST CARCINOGEN TREATMENT (STUDY DURATION: 40 WK), Species: RAT, Strain/Sex: WISTAR/MALE, Target Tissue: Type of Lesion: KIDNEY: RENAL CELL TUMOR, Dose [Carcinogen]: 0.1% IN DRINKING WATER FOR 3 WK, Promoter: NONE USED","14/17 (82%), 13/16 (81%), 1%, not significant"
same,"tumour outcome (control, treated, inhibition, significance)","Carcinogen: N-ETHYL-N-HYDROXYETHYLNITROSAMINE, 13147-25-6, 0.8% IN DIET FOR 36 WK BEGINNING 1 WK POST CARCINOGEN TREATMENT (STUDY DURATION: 40 WK), Species: RAT, Strain/Sex: WISTAR/MALE, Target Tissue: Type of Lesion: LIVER: HEPATOCELLULAR ADENOMA, Dose [Carcinogen]: 0.1% IN DRINKING WATER FOR 3 WK, Promoter: NONE USED","10/17 (59%), 7/16 (44%), 25%, not significant"
same,"tumour outcome (control, treated, inhibition, significance)","Carcinogen: N-ETHYL-N-HYDROXYETHYLNITROSAMINE, 13147-25-6, 0.8% IN DIET FOR 36 WK BEGINNING 1 WK POST CARCINOGEN TREATMENT (STUDY DURATION: 40 WK), Species: RAT, Strain/Sex: WISTAR/MALE, Target Tissue: Type of Lesion: LIVER: HEPATOCELLULAR CARCINOMA, Dose [Carcinogen]: 0.1% IN DRINKING WATER FOR 3 WK, Promoter: NONE USED","7/17 (41%), 3/16 (19%), 54%, not significant"
same,"tumour outcome (control, treated, inhibition, significance)","Carcinogen: N-NITROSOBIS(2-OXOPROPYL)AMINE, 60599-38-4, 1.5% IN DIET FOR 16 WK BEGINNING 2 WK POST CARCINOGEN TREATMENT (STUDY DURATION: 20 WK), Species: HAMSTER, Strain/Sex: SYRIAN/FEMALE, Target Tissue: Type of Lesion: GALL BLADDER: ADENOMA, Dose [Carcinogen]: 70 MG/KG IN SALINE FOLLOWED 2 WK LATER BY SECOND TREATMENT","9/18 (50%), 10/16 (62%), -24%, not calculated"
same,"tumour outcome (control, treated, inhibition, significance)","Carcinogen: N-NITROSOBIS(2-OXOPROPYL)AMINE, 60599-38-4, 1.5% IN DIET FOR 16 WK BEGINNING 2 WK POST CARCINOGEN TREATMENT (STUDY DURATION: 20 WK), Species: HAMSTER, Strain/Sex: SYRIAN/FEMALE, Target Tissue: Type of Lesion: GALL BLADDER: CARCINOMA, Dose [Carcinogen]: 70 MG/KG IN SALINE FOLLOWED 2 WK LATER BY SECOND TREATMENT","1/18 (6%), 1/16 (6%), 0%, not significant"
same,"tumour outcome (control, treated, inhibition, significance)","Carcinogen: N-NITROSOBIS(2-OXOPROPYL)AMINE, 60599-38-4, 1.5% IN DIET FOR 16 WK BEGINNING 2 WK POST CARCINOGEN TREATMENT (STUDY DURATION: 20 WK), Species: HAMSTER, Strain/Sex: SYRIAN/FEMALE, Target Tissue: Type of Lesion: LIVER: CHOLANGIOCARCINOMA, Dose [Carcinogen]: 70 MG/KG IN SALINE FOLLOWED 2 WK LATER BY SECOND TREATMENT","16/18 (89%), 12/16 (75%), 16%, not calculated"
same,"tumour outcome (control, treated, inhibition, significance)","Carcinogen: N-NITROSOBIS(2-OXOPROPYL)AMINE, 60599-38-4, 1.5% IN DIET FOR 16 WK BEGINNING 2 WK POST CARCINOGEN TREATMENT (STUDY DURATION: 20 WK), Species: HAMSTER, Strain/Sex: SYRIAN/FEMALE, Target Tissue: Type of Lesion: LIVER: NEOPLASTIC NODULE, Dose [Carcinogen]: 70 MG/KG IN SALINE FOLLOWED 2 WK LATER BY SECOND TREATMENT","18/18 (100%), 16/16 (100%), 0%, not significant"
same,"tumour outcome (control, treated, inhibition, significance)","Carcinogen: N-NITROSOBIS(2-OXOPROPYL)AMINE, 60599-38-4, 1.5% IN DIET FOR 16 WK BEGINNING 2 WK POST CARCINOGEN TREATMENT (STUDY DURATION: 20 WK), Species: HAMSTER, Strain/Sex: SYRIAN/FEMALE, Target Tissue: Type of Lesion: PANCREAS: ADENOCARCINOMA, Dose [Carcinogen]: 70 MG/KG IN SALINE FOLLOWED 2 WK LATER BY SECOND TREATMENT","14/18 (78%), 10/16 (63%), 19%, not calculated"
